Reference: US20250205200A1, “5-METHOXY-N,N-[…][…] THE TREATMENT OF […]” (GH RESEARCH IRELAND LIMITED, priority 2022, published 2025)

Tests used:
patients with PPD = conditions: cited from earlier work
[1] = rat; cited from earlier work
[2] = Pharmacokinetics of 5-MeO-DMT and bufotenine after inhalation; type: in vivo, human
human plasma protein = assay: Plasma binding of 5-MIAA; type: in vitro ADME; conditions: estimated from fu and glomerular filtration rate 90-120 ml/min
human hepatocytes = assay: Metabolic stability in Hμrel human hepatocyte co-culture assay; type: in vitro ADME; conditions: for Metabolic turnover: human hepatocytes

Compound: CC(=O)[C@H]1CC[C@H]2[C@@H]3CC[C@H]4C[C@H](O)CC[C@]4(C)[C@H]3CC[C@]12C [brexanolone]
- HAM-D scores (patients with PPD; one phase 3 trial, 30 days after initiation of infusion): significantly reduced
- Efficacy (HAM-D) (patients with PPD; other phase 3 trial): failed to show efficacy beyond 7 days

Compound: COc1ccc2[nH]cc(CC[N+](C)(C)[O-])c2c1 [5-MeO-DMT-N-oxide]
- Excretion [1]: rapid excretion

Compound: CN(C)CCc1c[nH]c2ccc(O)cc12 [Bufotenine (5-OH-DMT), Bufotenine]
- Detection of bufotenine in human serum ([2]; 15 minutes after administration of 5-MeO-DMT): In no case is it detected
- Detection of bufotenine in human serum ([2]; after administration of 5-MeO-DMT): barely detected
- Samples with bufotenine concentration above LLOQ (25 pg/ml) ([2]; after inhaled 5-MeO-DMT): Only in few samples

Compound: 5-Methoxyindole acetic acid [5-Methoxyindole acetic acid (5-MIAA)]
- Time until removed from circulation for urinary excretion (human plasma protein): 1 to 2 h
- Metabolic turnover (human hepatocytes): low metabolic turnover
- Remaining abundance after 72 h (human hepatocytes; in the presence of hepatocytes, 1 and 10 μM): 75-82%
- Disappearance with stromal cell controls (human hepatocytes): no disappearance

Compound: COc1ccc2[nH]cc(CCO)c2c1 [5-Methoxyindole-3-ethanol]
- Relative LC/MS peak area remaining (human hepatocytes; 1 μM Stromal cells, 4 h): 97%
- Relative LC/MS peak area remaining (human hepatocytes; 1 μM Stromal cells, 8 h): 107%
- Relative LC/MS peak area remaining (human hepatocytes; 1 μM Stromal cells, 24 h): 94%
- Relative LC/MS peak area remaining (human hepatocytes; 1 μM Stromal cells, 48 h): 102%
- Relative LC/MS peak area remaining (human hepatocytes; 1 μM Stromal cells, 72 h): 104%
- Relative LC/MS peak area remaining (human hepatocytes; 10 μM Stromal cells, 4 h): 99%
- Relative LC/MS peak area remaining (human hepatocytes; 10 μM Stromal cells, 8 h): 105%
- Relative LC/MS peak area remaining (human hepatocytes; 10 μM Stromal cells, 24 h): 86%
- Relative LC/MS peak area remaining (human hepatocytes; 10 μM Stromal cells, 48 h): 98%
- Relative LC/MS peak area remaining (human hepatocytes; 10 μM Stromal cells, 72 h): 104%
- Metabolic turnover (human hepatocytes): high metabolic turnover
- Disappearance with stromal cell controls (human hepatocytes): no disappearance
